Test [1] relates to AMPK (AMP-activated protein kinase). The test is described as follows: In vitro kinase assay of GST-TORC2 (161-181) with purified AMPK. The class given is biochemical. Particulars: 300 μM AMP. From the text:
Specifically, FIG. 20A illustrates the relative phosphorylation of wild-type or Ser171 Ala mutant recombinant GST-TORC2 (161-181) compared to GST only or optimal AMPK peptide substrate (SAMS) by activated AMPK in vitro. Addition of AMP to reactions is shown. The relative incorporation of γ^32P-ATP by each substrate is indicated.
Recombinant GST-TORC2 (161 -181) wild-type and Ser171 Ala proteins were phosphorylated in vitro with 100 mU purified AMPK (AMP-activated protein kinase) (Upstate Biotech) ±300 μM AMP according to the manufacturer's instructions. Following 15 mm. incubation with γ-^32P-ATP, relative ^32P incorporation was measured by scintillation. GST substrates and SAMS peptide were used at 3 μM in each reaction.
By contrast with SIK, ATP depletion appears to be uniquely sensed by AMPK, the founding member of this family (see Sakamoto et al., 2004; Lizcano et al., 2004; Bananjee et al., 2004; and Radzuik et al., 2003). The presence of a consensus AMPK phosphorylation site (Ser171) that modulates TORC2 activity in liver prompted examination of whether AMPK inhibits gluconeogenesis via phosphorylation of TORC2 in response to ATP depletion. Activated AMPK phosphorylated wild-type, but not Ser171Ala mutant GST-TORC2 (161-181) peptide in vitro (see FIG. 20A).

Test [2] concerns CREB-dependent EVX-1 promoter. Briefly: Transient transfection assay of HIT insulinoma cells with CREB-dependent EVX-1 luciferase reporter. The following applies: for induction of CREB-dependent EVX-1 promoter: single stimulus (KCl 45 mM or forskolin), 6 hr. The class given is cell-based, Hamster. How it is done:
Specifically, FIG. 1A summarizes the results of a transient transfection assay of HIT insulinoma cells transfected with the CREB-dependent EVX-1 luciferase reporter. Cells were treated with KCl (45 mM) and/or forskolin (10 nM) for six hours as indicated.
HEK293T, HIT or PC 12 cells were co-transfected with EVX or GAL4-LUC reporter plasmid, RSV-beta galactosidase and FLAG-TORC and/or SIK2 expression plasmids overnight using Lipofectamine 2000 (Invitrogen, Carlsbad, Calif.). DNA/lipid complexes were washed the next day and extracts prepared 24 h (293T and PC 12) or 40 hr (HITs) after transfection. […] Luciferase values were normalized to β-gal activity from co-transfected RSV-beta galactosidase activity in the corresponding sample.
Hamster insulinoma (HIT) cells were employed to test the relative effects of cAMP and calcium signals on CREB activity. Opening of voltage-sensitive L-type calcium channels in response to KC1 depolarization induced the CREB-dependent EVX-1 promoter (Conknight et al., 2003b) 5-fold in HIT cells, whereas addition of cAMP agonist stimulated the reporter 10-fold (see FIG. 1A). […] Consistent with the effects of calcium channel activity on the EVX-1 promoter, treatment with high glucose (20 mM) induced the expression of the endogenous CREB target gene NR4A2 5-fold in MIN6 insulinoma cells; and co-stimulation with glucose plus exendin-4, an analogue of the incretin hormone GLP-1, enhanced NR4A2 mRNA levels 35-fold (see FIG. 1B).

In test [3] the test system is phospho (Ser133) CREB. The test is described as follows: Western blot of phospho (Ser133) CREB levels in HIT cells. The format is cell-based, Hamster. The following applies: forskolin 10 μM or KCl 45 mM. The method, then: FIG. 1C is a Western blot assay of phospho (Ser133) CREB levels in HIT cells following treatment with KCl (45 mM), forskolin (10 μM), or both together for 30 minutes.
FIG. 9 illustrates the time course (in minutes) of CREB Ser133 phosphorylation in HIT cells following treatment with forskolin (10 μM) or KCl (45 mM). […] Immunoreactive bands correspond to phospho (Ser133) CREB (top) and phospho (Ser63) ATF1 (bottom).
Western blot analyses were conducted on whole cell, cytoplasmic and nuclear extracts with the following rabbit polyclonal antisera: phospho (Ser133) specific affinity purified 5322 and phospho (Ser133) specific antibody from Rockland Immunochemicals, Gilbertsville, Pa.), non-discriminating CREB (244), phosphor (Ser171) CREB, TORC2, pan-TORC, SIK1 and SIK2. 14-3-3 and Hsp90 antibodies were from Santa Cruz (Santa Cruz, Calif.). FLAG-M2 (Sigma) and GAL4 (Santa Cruz) monoclonal antibodies were used at 1:2000 and 1:1000 dilutions, respectively. For quantitative western blotting, goat anti-mouse-800 nm fluorophore conjugate to detect FLAG-M2 was used at 1:40,000 dilution according to manufacturer's instructions (Licor) prior to analysis using the Odyssey detection system. GST-pulldowns were performed as described (Asahara et al., 2001). […]

Test [4] has as its system GAL4-CREB. The test is described as follows: GAL4-CREB transient GAL4 luciferase reporter assay in HIT cells. The format is cell-based, Hamster.
The test system of test [5] is CREB:CBP complex (KID:KIX interaction). Briefly: Mammalian two-hybrid assay GAL4-KID / KIX-VP16 in HIT cells. The format is cell-based, Hamster.
The subject of test [6] is TORC2. Briefly: EVX-1 reporter assay in HIT cells co-transfected with TORC2 expression vector. The class given is cell-based, Hamster.
Protocol: Cells were treated with forskolin or KCl as indicated.
Test [7] relates to SIK1. The test is described as follows: SIK1 mRNA levels in primary rat hepatocytes. The class given is cell-based. From the text: FIG. 18F summarizes the effect of FSK treatment on SIK1 mRNA levels in primary rat hepatocytes. Cells were infected with control (GFP) or dominant negative A-CREB adenovirus as indicated.
Based on the ability of CHX to disrupt TORC2 Ser171 phosphorylation, it was hypothesized that glucagon induces the expression of an inhibitory kinase during the attenuation period. […] Indeed, fasting induced SIK1 mRNA and protein levels in liver 4-fold relative to feeding conditions, whereas expression of other SIK family members (SIK2 and SIK3) was unaffected (see FIGS. 18D and 18E).

Test [8] concerns TORC:14-3-3 complexes. The test is described as follows: Co-immunoprecipitation of TORC with endogenous 14-3-3 proteins. The format is cell-based. The following applies: basal and cAMP stimulated conditions; CsA 5 μM, OA 100 nM. An excerpt:
FIGS. 5A-5D illustrate that 14-3-3 proteins associate with and repress TORC activity. Specifically, FIG. 5A, top panel, presents the results of a coimmunoprecipitation assay of Flag-TORC1 with endogenous 14-3-3 proteins in HEK293T cells. The effect of forskolin (F) treatment on the TORC 1: 14-3-3 association is shown. […] FIG. 5A, bottom left panel, is a Western blot assay of 14-3-3 proteins recovered from TORC or control 1 gG immunoprecipitates, illustrating the effect of forskolin treatment on endogenous TORC: 14-3-3 complexes in PC12 and HEK293T cells. Input levels of 14-3-3 and TORC proteins are shown. […] FIG. 5A, bottom right panel, illustrates the kinetics of TORC2 dissociation from endogenous 14-3-3 proteins in response to forskolin treatment of HEK293T cells. The levels of Flag-tagged TORC 2 (FLAG-T2) recovered from flag immunoprecipitates at each time point is shown below.
Rabbit pan-TORC (raised against 1-42 of human TORC1) and TORC2 selective rabbit polyclonal antiserum (raised against amino acids 454-607 of mouse TORC2) were generated as previously described (Conkright et al., 2003a)). Whole cell protein was extracted from cultured HEK293T, HIT, and MIN6 cells in Laemmli SDS sample buffer. Alternatively, whole cell protein was extracted from liver tissue or primary hepatocytes in SDS-urea-lysis buffer. […]

The subject of test [9] is CREB. The test is described as follows: CREB Ser133 phosphorylation in liver after IP injection (histochemical and Western blot). The class given is in vivo. Particulars: mice; intraperitoneal administration.
Test [10] deals with TORC2. The test is described as follows: TORC2 localization, Ser171 phosphorylation and promoter recruitment in liver after IP injection. The class given is in vivo. The following applies: mice; IP administration.
Test [11] relates to primary rat hepatocytes. Briefly: Glucose output from primary rat hepatocytes. Particulars: FSK/DEX. The format is cell-based. The method, then: FIG. 17C summarizes the effect of TORC on glucose output from primary rat hepatocytes in response to fasting and feeding signals. Cells were infected with TORC1, TORC2, or control GFP adenovirus and then treated with FSK plus dexamethasone (FSK/DEX) for four hours. The effect of insulin on glucose output is shown.
Rat primary hepatocytes were prepared from 200-300g of Sprague-Dawley rats by collagenase perfusion method as described previously (see Koo et al., 2004). 1×10^6 cells were plated in 6 well plates with medium 199 (Invitrogen, Carlsbad, Calif.) supplemented by 10% FBS, 10 units/ml penicillin, 10 μg/ml streptomycin, and 10 nM dexamethasone for 3-6 hours. After attachment, cells were infected with adenoviruses for 16 hours. Subsequently, cells were maintained in medium 199 without FBS and dexamethasone for 24 hours (for cDNA expression adenoviruses) or 48 hours (for RNAi adenoviruses) and […] forskolin or 100 nM glucagon for 2 hours unless noted otherwise. For experiments with cycloheximide, 10 μg/ml cycloheximide was added 30 minutes prior to the addition of 100 nM glucagon.
The ability of TORC2 to modulate gluconeogenic gene expression in hepatocytes exposed to cAMP agonist is consistent with the proposal that this coactivator modulates glucose output from the liver in response to fasting signals.

With `Nc1ncnc2c1ncn2[C@@H]1O[C@H](COP(=O)(O)O)[C@@H](O)[C@H]1O` [AMP], the “phosphorylation of TORC by AMPK” value in test [1] was “induced”.
For `[Cl-].[K+]` [KCl], the “induction of CREB-dependent EVX-1 promoter” value in test [2] stood at 5 fold. The “levels of CREB Ser133 phosphorylation” value in test [3] is “increased levels of CREB Ser133 phosphorylation”. Also, in test [4] (added individually), the “induction of GAL4 reporter activity via GAL4-CREB” value is recorded as 2 fold. For the same compound, the “response of truncated GAL4-CREBΔbZIP polypeptide” value in test [4] (lacking bZIP domain (aa. 284-341)) is recorded as “no induction”. Moreover, in test [5] (KCl depolarization alone), the “effect on KID:KIX interaction” value was “had no effect”. Moreover, the “further potentiation of EVX-1 reporter in TORC2 over-expressing cells” value in test [6] came to 30 fold.
`C=C[C@@]1(C)CC(=O)[C@]2(O)[C@@]3(C)[C@@H](O)CCC(C)(C)[C@@H]3[C@H](O)[C@H](OC(C)=O)[C@@]2(C)O1` [forskolin, Forskolin]: in test [2] (co-stimulation with both forskolin and KCl), the “stimulation of CREB activity (EVX-1 reporter)” value was 80 fold. In test [2], the “induction of CREB-dependent EVX-1 promoter” value is on record as 10 fold. In addition, the “induction of GAL4 reporter activity via GAL4-CREB” value was 22 fold in [4] (KCl and forskolin in combination); 5 fold in test [4] (added individually). In addition, the “stimulation of KID:KIX interaction (GAL4 luciferase reporter)” value in test [5] (6 hours) is 20 fold. The “induction of SIK1 mRNA levels” value in test [7] is given as 20 fold. The “further potentiation of EVX-1 reporter in TORC2 over-expressing cells” value in [6] stood at 25 fold.
Turning to `C=C1[C@@H](O)[C@@H]2O[C@]3(CC[C@H](/C=C/[C@@H](C)[C@@H]4CC(C)=C[C@@]5(O[C@H](C[C@@](C)(O)C(=O)O)CC[C@H]5O)O4)O3)CC[C@H]2O[C@@H]1[C@@H](O)C[C@H](C)[C@H]1O[C@@]2(CCCCO2)CC[C@H]1C` [okadaic acid], the “effect of phosphatase inhibitor on TORC:14-3-3 complex formation” value in test [8] is recorded as “had no effect on this interaction”.
As to insulin, in test [9], the “CREB Ser133 phosphorylation in liver” value is reported as “comparable effects on Ser133 phosphorylation”. For the same compound, in test [10], the “TORC2 phosphorylation at Ser171 in liver” value was “highly phosphorylated at Ser171” and the “nuclear translocation of hepatic TORC2” value is “did not stimulate nuclear entry of TORC2”. Also, in [11], the “effect on glucose output from TORC over-expressing cells” value is recorded as “disrupted”.
